From ChEMBL document CHEMBL3112413, “Novel coumarin-dihydropyrazole thio-ethanone derivatives: design, synthesis and anticancer activity” (Eur J Med Chem, 2014)
Activity calls are given as the source filed them. No cut-off for these calls is given here.

Assays:
[1] = biological target: DNA polymerase I, thermostable (Thermus aquaticus) (UniProt P19821); test: Inhibition of Thermus aquaticus Taq polymerase at IC50 for telomerase inhibition after 15 mins using ethidium bromide staining by 2% agarose gel electrophoresis analysis
DNA polymerase I, thermostable (Thermus aquaticus), sequence (P19821 whole entry): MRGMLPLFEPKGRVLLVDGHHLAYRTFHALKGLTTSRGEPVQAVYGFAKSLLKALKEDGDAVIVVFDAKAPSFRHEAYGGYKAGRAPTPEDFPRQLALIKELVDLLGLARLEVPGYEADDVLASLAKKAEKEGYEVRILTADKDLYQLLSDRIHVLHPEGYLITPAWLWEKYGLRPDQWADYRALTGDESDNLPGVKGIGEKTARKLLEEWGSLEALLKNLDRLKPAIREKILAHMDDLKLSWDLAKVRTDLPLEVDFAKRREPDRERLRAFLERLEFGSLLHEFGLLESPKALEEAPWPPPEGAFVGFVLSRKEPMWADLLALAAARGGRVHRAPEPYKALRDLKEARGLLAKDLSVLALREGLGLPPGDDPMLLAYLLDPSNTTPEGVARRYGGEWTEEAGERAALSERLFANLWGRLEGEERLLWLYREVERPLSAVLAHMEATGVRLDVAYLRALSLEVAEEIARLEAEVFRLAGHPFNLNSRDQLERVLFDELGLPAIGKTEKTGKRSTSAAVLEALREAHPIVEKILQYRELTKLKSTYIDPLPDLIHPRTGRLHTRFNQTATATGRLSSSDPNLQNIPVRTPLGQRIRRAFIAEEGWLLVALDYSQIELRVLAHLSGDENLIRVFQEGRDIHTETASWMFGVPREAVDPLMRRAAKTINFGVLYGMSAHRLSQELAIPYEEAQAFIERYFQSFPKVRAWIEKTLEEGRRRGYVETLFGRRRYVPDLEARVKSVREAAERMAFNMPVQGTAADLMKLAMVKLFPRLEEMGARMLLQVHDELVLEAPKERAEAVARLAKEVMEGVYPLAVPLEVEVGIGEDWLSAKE

[2] = biological target: Telomerase reverse transcriptase (Homo sapiens, UniProt O14746); test: Inhibition of telomerase in human MGC803 cell extracts after 24 hrs by TRAP-PCR-ELISA; design: species or system MGC-803
Telomerase reverse transcriptase, sequence (O14746 whole entry): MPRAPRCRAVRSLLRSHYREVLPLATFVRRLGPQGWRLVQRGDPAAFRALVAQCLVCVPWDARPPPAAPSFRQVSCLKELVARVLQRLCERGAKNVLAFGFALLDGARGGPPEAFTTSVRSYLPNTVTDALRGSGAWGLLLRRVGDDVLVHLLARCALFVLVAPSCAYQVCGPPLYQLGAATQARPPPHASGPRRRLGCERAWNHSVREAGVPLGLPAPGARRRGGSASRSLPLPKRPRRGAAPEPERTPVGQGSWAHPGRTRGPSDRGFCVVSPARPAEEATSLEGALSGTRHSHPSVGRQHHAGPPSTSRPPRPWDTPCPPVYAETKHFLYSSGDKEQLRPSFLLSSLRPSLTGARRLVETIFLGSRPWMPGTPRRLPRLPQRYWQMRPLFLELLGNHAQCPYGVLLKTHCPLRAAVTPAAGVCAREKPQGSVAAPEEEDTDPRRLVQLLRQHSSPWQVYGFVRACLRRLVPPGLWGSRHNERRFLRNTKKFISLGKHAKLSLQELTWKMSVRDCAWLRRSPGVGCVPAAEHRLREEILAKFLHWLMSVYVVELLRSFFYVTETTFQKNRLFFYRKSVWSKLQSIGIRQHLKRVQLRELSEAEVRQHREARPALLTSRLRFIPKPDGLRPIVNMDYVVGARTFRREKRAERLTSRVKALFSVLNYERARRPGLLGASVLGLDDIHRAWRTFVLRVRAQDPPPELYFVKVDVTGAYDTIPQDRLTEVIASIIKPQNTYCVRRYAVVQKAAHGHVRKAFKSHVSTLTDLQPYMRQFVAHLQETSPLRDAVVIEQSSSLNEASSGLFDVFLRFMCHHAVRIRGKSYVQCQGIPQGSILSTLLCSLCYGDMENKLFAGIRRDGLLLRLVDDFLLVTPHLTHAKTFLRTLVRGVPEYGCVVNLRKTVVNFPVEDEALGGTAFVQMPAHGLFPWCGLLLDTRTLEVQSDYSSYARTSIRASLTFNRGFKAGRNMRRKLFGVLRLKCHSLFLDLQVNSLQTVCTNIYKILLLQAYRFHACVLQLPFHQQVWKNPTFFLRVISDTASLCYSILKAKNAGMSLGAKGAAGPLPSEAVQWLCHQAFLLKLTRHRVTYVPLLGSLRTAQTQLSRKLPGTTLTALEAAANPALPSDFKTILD

MGC-803 [3] = test: Cell cycle arrest in human MGC803 cells at 0.92 uM after 48 hrs using propidium iodide staining after 48 hrs by flow cytometer relative to control; format: functional
Bcap37 = test: Cytotoxicity against human Bcap37 cells after 48 hrs by MTT assay; format: functional, cell-based; details: Bcap37, 48 h
HepG2 = test: Cytotoxicity against human HepG2 cells after 48 hrs by MTT assay; format: functional, cell-based; details: HepG2, 48 h
[4] = Cytotoxicity against human SGC7901 cells after 48 hrs by MTT assay; format: functional, cell-based; details: SGC-7901, 48 h
MGC-803 [5] = test: Cytotoxicity against human MGC803 cells after 48 hrs by MTT assay; format: functional, cell-based; details: MGC-803, 48 h
MGC-803 [6] = test: Cell cycle arrest in human MGC803 cells assessed as accumulation at G2/M phase at 25 uM after 48 hrs using propidium iodide staining after 48 hrs by flow cytometer relative to control; format: functional
MGC-803 [7] = test: Cell cycle arrest in human MGC803 cells assessed as accumulation at S phase at 25 uM after 48 hrs using propidium iodide staining after 48 hrs by flow cytometer relative to control; format: functional
MGC-803 [8] = test: Cell cycle arrest in human MGC803 cells assessed as accumulation at G0/G1 phase at 25 uM after 48 hrs using propidium iodide staining after 48 hrs by flow cytometer relative to control; format: functional
MGC-803 [9] = test: Cell cycle arrest in human MGC803 cells assessed as accumulation at G2/M phase at […] uM after 48 hrs using propidium iodide staining after 48 hrs by flow cytometer relative to control; format: functional
MGC-803 [10] = test: Cell cycle arrest in human MGC803 cells assessed as accumulation at S phase at […] uM after 48 hrs using propidium iodide staining after 48 hrs by flow cytometer relative to control; format: functional
MGC-803 [11] = test: Cell cycle arrest in human MGC803 cells assessed as accumulation at G0/G1 phase at […] uM after 48 hrs using propidium iodide staining after 48 hrs by flow cytometer relative to control; format: functional

With CCCCSCC(=O)N1N=C(c2cc3ccccc3oc2=O)C[C@@H]1c1ccc(C(F)(F)F)cc1 the inhibition [1] was “inactive”, the IC50 [2] was 0.92 µM and the Activity (MGC-803 [3]) was 66%. For the same compound, the IC50 (Bcap37) was 3.55 µM, the IC50 (HepG2) was 8.68 µM and the IC50 [4] was 2.91 µM. The IC50 (MGC-803 [5]) was 2.35 µM.
O=C(CSc1ccc(Br)cc1)N1N=C(c2cc3ccccc3oc2=O)C[C@@H]1c1ccccc1C(F)(F)F gave an IC50 (Bcap37) of 10.3 µM, an IC50 (HepG2) of 17.9 µM and an IC50 [4] of 14.7 µM. The IC50 (MGC-803 [5]) was 21.3 µM.
O=c1cc(N2CCOCC2)oc2c(-c3ccccc3)cccc12 [LY-294002] showed an Activity (MGC-803 [6]) of 22.4%, an Activity (MGC-803 [7]) of 27.1% and an Activity (MGC-803 [8]) of 50.5%.
For O=C(CSc1ccc(Br)cc1)N1N=C(c2cc3ccccc3oc2=O)C[C@@H]1c1ccc(C(F)(F)F)cc1, the inhibition [1] was “inactive”, the IC50 [2] was 25.1 µM and the IC50 (Bcap37) was 7.99 µM. For the same compound, the IC50 (HepG2) was 12.7 µM, the IC50 [4] was 12.1 µM and the IC50 (MGC-803 [5]) was 10.8 µM.
With CC1=NN(C(=O)CSc2ccccc2)[C@@H](c2cc(Br)cc(Br)c2O)C1 the IC50 (Bcap37) was 13.1 µM, the IC50 (HepG2) was 10.3 µM and the IC50 [4] was 24.1 µM. For the same compound, the IC50 (MGC-803 [5]) was 12.7 µM.
For CCCSCC(=O)N1N=C(C)C[C@@H]1c1cc(Br)cc(Br)c1O, the inhibition [1] was “inactive”, the IC50 [2] was 1.04 µM and the Activity (MGC-803 [9]) was 25.2%. It also gave an Activity (MGC-803 [10]) of 30.1%, an Activity (MGC-803 [11]) of 47.2% and an IC50 (Bcap37) of 3.24 µM. For the same compound, the IC50 (HepG2) was 4 µM, the IC50 [4] was 2.3 µM and the IC50 (MGC-803 [5]) was 2.97 µM.
CC[n+]1c(-c2ccccc2)c2cc(N)ccc2c2ccc(N)cc21 [HOMIDIUM BROMIDE] gave an IC50 [2] of 2.1 µM.
For CC1=NN(C(=O)CSc2nc3ccccc3s2)[C@@H](c2cc(Br)cc(Br)c2O)C1, the IC50 [2] was 4.65 µM, the IC50 (Bcap37) was 9.7 µM and the IC50 (HepG2) was 8.7 µM. It also gave an IC50 [4] of 12.3 µM and an IC50 (MGC-803 [5]) of 7.8 µM.
Work on CCCCSCC(=O)N1N=C(c2cc3ccccc3oc2=O)C[C@@H]1c1ccccc1 yielded an IC50 (Bcap37) of 9.7 µM, an IC50 (HepG2) of 6.64 µM and an IC50 [4] of 7.3 µM. It also gave an IC50 (MGC-803 [5]) of 12.8 µM.
O=C(CSc1ccc(Br)cc1)N1N=C(c2cc3ccccc3oc2=O)C[C@@H]1c1ccccc1 showed an IC50 (Bcap37) of 13 µM, an IC50 (HepG2) of 14.5 µM and an IC50 [4] of 14.3 µM. The IC50 (MGC-803 [5]) was 16.8 µM.
With CCCCSCC(=O)N1N=C(c2cc3ccccc3oc2=O)C[C@@H]1c1ccccc1C(F)(F)F the inhibition [1] was “inactive”, the IC50 [2] was 2 µM and the IC50 (Bcap37) was 9.73 µM. It also gave an IC50 (HepG2) of 5.01 µM, an IC50 [4] of 4.42 µM and an IC50 (MGC-803 [5]) of 3.14 µM.
In the case of CC1=NN(C(=O)CSc2ccccn2)[C@@H](c2cc(Br)cc(Br)c2O)C1, the IC50 (Bcap37) is reported as 16.7 µM, the IC50 (HepG2) is reported as 24.7 µM and the IC50 [4] is reported as 10.3 µM. For the same compound, the IC50 (MGC-803 [5]) was 12.3 µM.
Compound C/C(=C\C(=O)Nc1ccccc1C(=O)O)c1ccc2ccccc2c1 has an IC50 [2] of 0.28 µM.
O=C(CSc1ccc([N+](=O)[O-])cc1)N1N=C(c2cc3ccccc3oc2=O)C[C@@H]1c1ccccc1C(F)(F)F gave an IC50 (Bcap37) of 10.8 µM, an IC50 (HepG2) of 7.7 µM and an IC50 [4] of 9.77 µM. For the same compound, the IC50 (MGC-803 [5]) was 7.58 µM.
With O=c1[nH]cc(F)c(=O)[nH]1 [FLUOROURACIL] the IC50 (Bcap37) was 5.58 µM, the IC50 (HepG2) was 4.35 µM and the IC50 [4] was 7.37 µM. For the same compound, the IC50 (MGC-803 [5]) was 3.68 µM.
In the case of O=C(CSc1ncccn1)N1N=C(c2cc3ccccc3oc2=O)C[C@@H]1c1ccccc1C(F)(F)F, the inhibition [1] is reported as “inactive”, the IC50 [2] is reported as 8.89 µM and the IC50 (Bcap37) is reported as 4.09 µM. It also gave an IC50 (HepG2) of 6.54 µM, an IC50 [4] of 4.97 µM and an IC50 (MGC-803 [5]) of 4 µM.
With O=C(CSCc1ccco1)N1N=C(c2cc3ccccc3oc2=O)C[C@@H]1c1ccc(C(F)(F)F)cc1 the IC50 (Bcap37) was 12 µM, the IC50 (HepG2) was 11.2 µM and the IC50 [4] was 9.74 µM. It also gave an IC50 (MGC-803 [5]) of 15.2 µM.
With O=C(CSc1ccc([N+](=O)[O-])cc1)N1N=C(c2cc3ccccc3oc2=O)C[C@@H]1c1ccc(C(F)(F)F)cc1 the IC50 (Bcap37) was 16.5 µM, the IC50 (HepG2) was 7.76 µM and the IC50 [4] was 8.51 µM. The IC50 (MGC-803 [5]) was 10.2 µM.
With O=C(CSc1ncccn1)N1N=C(c2cc3ccccc3oc2=O)C[C@@H]1c1ccc(C(F)(F)F)cc1 the IC50 (Bcap37) was 3.77 µM, the IC50 (HepG2) was 4.75 µM and the IC50 [4] was 4.39 µM. It also gave an IC50 (MGC-803 [5]) of 2.89 µM.
CC1=NN(C(=O)CSc2ccc(Br)cc2)[C@@H](c2cc(Br)cc(Br)c2O)C1 showed an IC50 (Bcap37) of 3.2 µM, an IC50 (HepG2) of 6.87 µM and an IC50 [4] of 8.21 µM. The IC50 (MGC-803 [5]) was 12.8 µM.
With COC(=O)CSCC(=O)N1N=C(C)C[C@@H]1c1cc(Br)cc(Br)c1O the inhibition [1] was “inactive”, the IC50 [2] was 1.19 µM and the IC50 (Bcap37) was 3.7 µM. For the same compound, the IC50 (HepG2) was 2.95 µM, the IC50 [4] was 3.3 µM and the IC50 (MGC-803 [5]) was 2.27 µM.
Compound O=C(CSc1ccccc1)N1N=C(c2cc3ccccc3oc2=O)C[C@@H]1c1ccccc1 has an IC50 (Bcap37) of 14.8 µM, an IC50 (HepG2) of 16.3 µM and an IC50 [4] of 20.3 µM. It also gave an IC50 (MGC-803 [5]) of 22.8 µM.
Work on O=C(CSCc1ccco1)N1N=C(c2cc3ccccc3oc2=O)C[C@@H]1c1ccccc1C(F)(F)F yielded an IC50 (Bcap37) of 10.3 µM, an IC50 (HepG2) of 18 µM and an IC50 [4] of 10.2 µM. For the same compound, the IC50 (MGC-803 [5]) was 15.7 µM.
